According to article PMC11659602, “Discovering covalent cyclic peptide inhibitors of peptidyl arginine deiminase 4 (PADI4) using mRNA-display with a genetically encoded electrophilic warhead” (Communications Chemistry, 2024):
Values joined by “and” are separate entries in the source; they are usually repeats but may differ in a detail not shown here. Identical values can stand only once. Like-named read-outs stand apart in the source and are kept apart here. Where a SMILES comes first, the peptide text is derived from it. Bridges are numbered along the chain shown (N, C = ends). [ ]: non-standard residue; d: D form. Orn(fluoroacetimidoyl) = N=C(CF)NCCC[C@H](N)C(=O)O

How the values were obtained:
PADI2 = molecular target: T1, PADI2 (Homo sapiens, UniProt Q9Y2J8); assay: Incubation time-dependent COLDER assay, selectivity; format: biochemical; conditions: for PADI2 activity normalised to 0.1% DMSO: quenched after 60 mins
T1 construct: His6; made in house
Procedure: (§1) To determine KI and kinact of covalent peptide inhibitors, COLDER assays were used[52]. Peptide dilutions were prepared using 5-fold dilutions from 500 µM and 300 µM to 0.8 µM and 2.4 µM, respectively, at 1% DMSO in COLDER buffer (50 mM HEPES, 150 mM NaCl and 2 mM DTT, pH 7.5). The 9 peptide dilutions were added to a 96-well plate, alongside a 1% DMSO control. An equal volume of 10 mM BAEE was added to each well and the solution was homogenised by pipette mixing. This was mixed with 50 nM His-PADI4, 0.6 mg/mL BSA and 10 mM CaCl2, in COLDER buffer, to bring the final volume to 300 µL in each well. Alternatively, His-PAD1 (100 nM) /His-PADI2 (100 nM) /His-PADI3 (250 nM) were used. For assays with PADI1 and PADI3, 10 mM N^α-benzoyl-L-arginine methyl […] (BAME) was used as the substrate instead of BAEE[48],[58],[59]. At 15-minute intervals, for 5 timepoints, 50 µL of solution was taken from each well and quenched with 10 µL EDTA (300 mM). 200 µL of COLDER solution containing 20 mM diacetyl monoxime/2,3-butanedione monoxime (Merck), 0.5 mM thiosemicarbazide (Acros Organics), 2.25 M H3PO4, 4.5 M H2SO4 and 1.5 mM NH4Fe(SO4)2.12H2O was added to each well. Samples were incubated for 20 min at 95 °C before measuring absorbance at 540 nm on a CLARIOstar Plus (BMG LABTECH). IC50 values for each time point were determined using non-linear regression with GraphPad Prism. Incubation time–dependent potency IC50(t) against incubation time was fitted to the Krippendorff equation (below) to determine KI and kinact using a Python script[53],[59]. […] IC50t=KI1+S/KM⋅2−2e^−ηIC50⋅kinact⋅t/ηIC50⋅kinact⋅t−1 WhereηIC50=IC50t/KI1+S/KM+IC50t

PADI3 = molecular target: T2, PADI3 (Homo sapiens, UniProt Q9ULW8); assay: as above; format: biochemical; conditions: for selectivity for PADI4 over PADI3: COLDER; for PADI3 activity, normalised (Figure S11c): same values as column 60 of Figure S11b; for PADI3 activity normalised to 0.1% DMSO: quenched after 60 mins
T2 construct: PADI3 (residue 1-664); made in house; host or cells: E. coli NiCo21(DE3)
T2 sequence (Q9ULW8 1-664): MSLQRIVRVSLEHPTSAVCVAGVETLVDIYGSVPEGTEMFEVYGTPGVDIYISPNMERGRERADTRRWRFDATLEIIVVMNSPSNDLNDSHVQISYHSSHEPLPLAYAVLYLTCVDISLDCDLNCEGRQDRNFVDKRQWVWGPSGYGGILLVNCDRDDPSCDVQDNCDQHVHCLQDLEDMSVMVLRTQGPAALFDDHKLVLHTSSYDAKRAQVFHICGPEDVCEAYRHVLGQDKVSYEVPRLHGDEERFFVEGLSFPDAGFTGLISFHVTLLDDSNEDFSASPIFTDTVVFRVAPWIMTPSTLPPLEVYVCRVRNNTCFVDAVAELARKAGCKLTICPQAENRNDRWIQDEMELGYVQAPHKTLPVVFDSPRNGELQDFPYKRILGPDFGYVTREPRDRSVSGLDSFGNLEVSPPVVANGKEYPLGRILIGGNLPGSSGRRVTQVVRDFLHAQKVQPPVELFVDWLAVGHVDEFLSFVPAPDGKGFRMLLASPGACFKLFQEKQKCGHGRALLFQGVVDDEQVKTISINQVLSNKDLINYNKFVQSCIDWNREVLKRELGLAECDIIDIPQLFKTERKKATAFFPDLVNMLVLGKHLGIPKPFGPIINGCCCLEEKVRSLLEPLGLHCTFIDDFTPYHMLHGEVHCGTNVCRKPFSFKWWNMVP
Procedure: as §1

PADI4 = molecular target: T3, PADI4 (Homo sapiens, UniProt Q9UM07); assay: Surface plasmon resonance (SPR), single cycle kinetics; format: binding; conditions: for Ki: k-1/k+1
T3 construct: His6; made in house
In short: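 Biotinylated His-PADI4 captured on CAP chip (~3000 RU); peptides as 5-point 3-fold series in HEPES, 150 mM NaCl, 10 mM CaCl2, 0.1% DMSO, pH 7.5, triplicate. Warhead peptides fitted two-state (k-2 = 0; Ki = k-1/k+1, kinact = k+2); others 1:1.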

[1] = each replicate, read-out: k2 / kinact
[2] = two-state reaction model, k+2, read-out: SPR kinact (converted)

T3 sequence (Q9UM07 whole entry): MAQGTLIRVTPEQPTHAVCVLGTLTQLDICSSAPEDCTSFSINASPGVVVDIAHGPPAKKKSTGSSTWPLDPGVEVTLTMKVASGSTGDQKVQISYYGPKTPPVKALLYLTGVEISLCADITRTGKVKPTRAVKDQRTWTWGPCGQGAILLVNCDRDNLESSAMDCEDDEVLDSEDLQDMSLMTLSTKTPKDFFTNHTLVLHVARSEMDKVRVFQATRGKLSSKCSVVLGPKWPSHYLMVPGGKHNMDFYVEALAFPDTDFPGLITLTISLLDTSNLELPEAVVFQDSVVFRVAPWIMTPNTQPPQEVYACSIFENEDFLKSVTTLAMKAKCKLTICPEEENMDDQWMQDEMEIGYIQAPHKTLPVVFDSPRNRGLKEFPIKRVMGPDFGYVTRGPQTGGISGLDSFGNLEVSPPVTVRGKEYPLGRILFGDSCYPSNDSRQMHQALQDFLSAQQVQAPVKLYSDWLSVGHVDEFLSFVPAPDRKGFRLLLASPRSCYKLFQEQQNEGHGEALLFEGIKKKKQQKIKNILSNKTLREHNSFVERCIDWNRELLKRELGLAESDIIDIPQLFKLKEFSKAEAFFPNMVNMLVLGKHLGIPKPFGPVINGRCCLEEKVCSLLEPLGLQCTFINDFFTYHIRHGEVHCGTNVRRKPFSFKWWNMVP
T1 sequence (Q9Y2J8 whole entry, species assumed): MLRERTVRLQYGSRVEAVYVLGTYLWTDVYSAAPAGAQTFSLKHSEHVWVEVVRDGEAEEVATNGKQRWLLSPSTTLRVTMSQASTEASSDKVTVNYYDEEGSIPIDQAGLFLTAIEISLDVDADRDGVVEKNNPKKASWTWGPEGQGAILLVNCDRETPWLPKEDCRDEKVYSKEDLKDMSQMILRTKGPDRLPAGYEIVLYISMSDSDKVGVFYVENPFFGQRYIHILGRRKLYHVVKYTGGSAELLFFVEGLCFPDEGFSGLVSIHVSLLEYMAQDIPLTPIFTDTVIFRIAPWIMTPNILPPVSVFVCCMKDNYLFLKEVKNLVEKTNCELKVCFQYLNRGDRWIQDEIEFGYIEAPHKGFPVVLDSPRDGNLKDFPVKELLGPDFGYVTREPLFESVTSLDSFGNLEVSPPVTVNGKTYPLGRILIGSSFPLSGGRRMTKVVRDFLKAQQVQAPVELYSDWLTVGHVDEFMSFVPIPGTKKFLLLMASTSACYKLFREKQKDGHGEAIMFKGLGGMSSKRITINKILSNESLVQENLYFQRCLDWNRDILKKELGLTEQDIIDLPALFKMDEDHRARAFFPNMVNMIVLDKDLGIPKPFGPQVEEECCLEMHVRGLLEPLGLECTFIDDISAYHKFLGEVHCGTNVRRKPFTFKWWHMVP

N=C(N)NCCC[C@@H]1NC(=O)[C@H](CCCNC(=N)CF)NC(=O)[C@H](CC(=O)O)NC(=O)[C@H](Cc2ccc(O)cc2)NC(=O)[C@H](CCCCN)NC(=O)[C@H](CO)NC(=O)[C@@H](Cc2ccc(O)cc2)NC(=O)CSC[C@@H](C(=O)NCC(N)=O)NC(=O)[C@H](CC(=O)O)NC(=O)[C@H](CCCNC(=N)N)NC(=O)[C@@H]2CCCN2C(=O)[C@H](CO)NC1=O [cP4_4, ySKYD(2)RSPRDCG] ({CH2CO}-[dY]SKYD[Orn(fluoroacetimidoyl)]RSPRDCG-NH2; thioether N-12)
PADI2 activity, normalised (Figure S11c) (PADI2; cP4_4 0.08 µM): 99.789 and 100 | PADI2 activity, normalised (Figure S11c) (PADI2; cP4_4 0.24 µM): 95.7806 and 93.2203 | PADI2 activity, normalised (Figure S11c) (PADI2; cP4_4 0.4 µM): 102.532 and 106.78 | PADI2 activity, normalised (Figure S11c) (PADI2; cP4_4 1.2 µM): 102.954 and 112.106 | PADI2 activity, normalised (Figure S11c) (PADI2; cP4_4 2 µM): 97.2574 and 108.91 | PADI2 activity, normalised (Figure S11c) (PADI2; cP4_4 6 µM): 96.6245 and 106.586 | PADI2 activity, normalised (Figure S11c) (PADI2; cP4_4 10 µM): 98.7342 and 104.552 | PADI2 activity, normalised (Figure S11c) (PADI2; cP4_4 30 µM): 95.8861 and 92.155 | PADI2 activity, normalised (Figure S11c) (PADI2; cP4_4 50 µM): 84.8101 and 93.6077 | selectivity for PADI4 over PADI3 (PADI3): 8 fold | PADI3 activity, normalised (Figure S11c) (PADI3; cP4_4 0.08 µM): 98.438 and 99.5208 and 99.723 | PADI3 activity, normalised (Figure S11c) (PADI3; cP4_4 0.24 µM): 84.0122 and 99.425 and 100.739 | PADI3 activity, normalised (Figure S11c) (PADI3; cP4_4 0.4 µM): 91.6386 and 95.0168 and 95.5679 | PADI3 activity, normalised (Figure S11c) (PADI3; cP4_4 1.2 µM): 73.8132 and 78.438 and 79.5014 | PADI3 activity, normalised (Figure S11c) (PADI3; cP4_4 2 µM): 66.9219 and 70.5798 | PADI3 activity, normalised (Figure S11c) (PADI3; cP4_4 6 µM): 34.487 and 31.5764 and 37.6731 | PADI3 activity, normalised (Figure S11c) (PADI3; cP4_4 10 µM): 25.1148 and 25.0599 and 28.7165 | PADI3 activity, normalised (Figure S11c) (PADI3; cP4_4 30 µM): 13.6294 and 7.139 and 10.988 | PADI3 activity, normalised (Figure S11c) (PADI3; cP4_4 50 µM): 9.311 and 5.7978 and 6.279 | kinact/KI (PADI4): 15200 M⁻¹ s⁻¹ | k2 / kinact (PADI4; each replicate): 0.0019 s⁻¹ | kinact (PADI4; [1]): 0.0017 s⁻¹ | kinact (PADI4; [2]): 0.00183 s⁻¹ | Ki (PADI4; two-state reaction model): 120 ± 10 nM

CC(C)C[C@@H]1NC(=O)[C@H](CCCCN)NC(=O)[C@H](CO)NC(=O)[C@H](CO)NC(=O)[C@H](Cc2ccc(O)cc2)NC(=O)[C@H](Cc2c[nH]cn2)NC(=O)[C@H](CCCNC(=N)CF)NC(=O)[C@H](CC(=O)O)NC(=O)[C@H](CC(C)C)NC(=O)[C@@H](Cc2ccc(O)cc2)NC(=O)CSC[C@@H](C(=O)NCC(N)=O)NC(=O)[C@H](Cc2ccc(O)cc2)NC1=O [cP4_15, yLD(2)HYSSKLYCG] ({CH2CO}-[dY]LD[Orn(fluoroacetimidoyl)]HYSSKLYCG-NH2; thioether N-12)
PADI2 activity normalised to 0.1% DMSO (PADI2; 0.08 µM): 102.409 and 98.7439 | PADI2 activity normalised to 0.1% DMSO (PADI2; 0.24 µM): 101.533 and 89.4278 | PADI2 activity normalised to 0.1% DMSO (PADI2; 0.4 µM): 100.438 and 90.9979 | PADI2 activity normalised to 0.1% DMSO (PADI2; 1.2 µM): 102.409 and 98.4299 | PADI2 activity normalised to 0.1% DMSO (PADI2; 2 µM): 106.46 and 98.5345 | PADI2 activity normalised to 0.1% DMSO (PADI2; 6 µM): 102.299 and 92.9867 | PADI2 activity normalised to 0.1% DMSO (PADI2; 10 µM): 102.956 and 100.105 | PADI2 activity normalised to 0.1% DMSO (PADI2; 30 µM): 100.219 and 95.1849 | PADI2 activity normalised to 0.1% DMSO (PADI2; 50 µM): 83.0292 and 85.4501 | PADI3 activity normalised to 0.1% DMSO (PADI3; 0.08 µM): 106.942 and 103.941 | PADI3 activity normalised to 0.1% DMSO (PADI3; 0.24 µM): 100.503 and 99.2995 | PADI3 activity normalised to 0.1% DMSO (PADI3; 0.4 µM): 100.805 and 104.641 | PADI3 activity normalised to 0.1% DMSO (PADI3; 1.2 µM): 98.1891 and 97.8109 | PADI3 activity normalised to 0.1% DMSO (PADI3; 2 µM): 82.1932 and 92.0315 | PADI3 activity normalised to 0.1% DMSO (PADI3; 6 µM): 75.5533 and 73.7303 | PADI3 activity normalised to 0.1% DMSO (PADI3; 10 µM): 66.499 and 67.8634 | PADI3 activity normalised to 0.1% DMSO (PADI3; 30 µM): 30.8853 and 30.3853 | PADI3 activity normalised to 0.1% DMSO (PADI3; 50 µM): 18.8129 and 17.5131 | IC50 (PADI3; 60-minute time point, no preincubation): ~40000 nM | selectivity for PADI4 over PADI3 (PADI3): Approximately 45 fold | kinact/KI (PADI4): 26600 M⁻¹ s⁻¹ | k2 / kinact (PADI4; each replicate): 0.0051 s⁻¹ | kinact (PADI4; [1]): 0.0028 s⁻¹ | kinact (PADI4; [2]): 0.00417 s⁻¹ | Ki (PADI4; two-state reaction model): 160 ± 30 nM
